Patent US20230278972A1, “SUBSTITUTED HALOALKYL SULFONANILIDE HERBICIDES” (FMC Corporation, priority 2020, published 2023)

What was measured:
Assay type in all cases: in vivo
[1] = tested on: Foxtail, Giant (giant foxtail, Setaria faberi); experiment: Test A1 preemergence, Foxtail, Giant
From the text: (§1) Seeds of plant species selected from, blackgrass (Alopecurus myosuroides), corn (Zea mays), Foxtail, Giant (giant foxtail, Setaria faberi), goosegrass (Eleusine indica), kochia (Bassia scoparia), Oat, Wild (wild oat, Avena fatua), Pigweed, Palmer (palmer amaranth, palmer pigweed, Amaranthus palmeri), ragweed (common ragweed, Ambrosia artemisiifolia), Ryegrass, Italian (Italian ryegrass, Lolium multiflorum), soybean (Glycine max), and wheat (Triticum aestivum) were planted into a blend of loam soil and sand and treated preemergence with a directed soil spray using test chemicals formulated in a non-phytotoxic solvent mixture which included a surfactant. At the same time, plants selected from these crop and weed species and also galium (catchweed bedstraw, Galium aparine) and horseweed (Erigeron canadensis) were planted in pots containing the same blend of loam soil and sand and treated with postemergence applications of test chemicals formulated in the same manner. Plants ranged in height from 2 to 10 cm and were in the one- to two-leaf stage for the postemergence treatment. […] A dash (-) response means no test result.

[2] = tested on: ducksalad (Heteranthera limosa); experiment: Test B1 flooded paddy test, ducksalad; settings: 250 g ai/ha, Flood, applied to paddy water, 2-leaf stage, visually evaluated after 10 to 14 days
From the text: (§2) A dash (-) response means no test result.

[3] = tested on: galium (catchweed bedstraw, Galium aparine); experiment: Test A1 postemergence, galium; settings: for Plant response rating, Galium: Postemergence
From the text: as §1

[4] = tested on: Oat, Wild (wild oat, Avena fatua); experiment: Test A1 preemergence, Oat, Wild
From the text: as §1

[5] = tested on: wheat (Triticum aestivum); experiment: Test A1 preemergence, wheat
From the text: as §1

kochia (Bassia scoparia) [6] = experiment: Test A1 preemergence, kochia
From the text: as §1

[7] = tested on: ragweed (common ragweed, Ambrosia artemisiifolia); experiment: Test A1 postemergence, ragweed; settings: for Plant response rating, Ragweed: Postemergence
From the text: as §1

[8] = tested on: goosegrass (Eleusine indica); experiment: Test A1 postemergence, goosegrass; settings: for Plant response rating, Goosegrass: Postemergence
From the text: as §1

[9] = tested on: Oat, Wild (wild oat, Avena fatua); experiment: Test A1 postemergence, Oat, Wild; settings: for Plant response rating, Oat, Wild: Postemergence
From the text: as §1

corn (Zea mays) [10] = experiment: Test A1 postemergence, corn; settings: for Plant response rating, Corn: Postemergence
From the text: as §1

[11] = tested on: barnyardgrass (Echinochloa crus-galli); experiment: Test B1 flooded paddy test, barnyardgrass; settings: 250 g ai/ha, Flood, applied to paddy water, 2-leaf stage, visually evaluated after 10 to 14 days
From the text: as §2

soybean (Glycine max) [12] = experiment: Test A1 postemergence, soybean; settings: for Plant response rating, Soybean: Postemergence
From the text: as §1

[13] = tested on: wheat (Triticum aestivum); experiment: Test A1 postemergence, wheat; settings: for Plant response rating, Wheat: Postemergence
From the text: as §1

[14] = tested on: Ryegrass, Italian (Italian ryegrass, Lolium multiflorum); experiment: Test A1 preemergence, Ryegrass, Italian
From the text: as §1

[15] = tested on: Ryegrass, Italian (Italian ryegrass, Lolium multiflorum); experiment: Test A1 postemergence, Ryegrass, Italian; settings: for Plant response rating, Ryegrass, Italian: Postemergence
From the text: as §1

[16] = tested on: Foxtail, Giant (giant foxtail, Setaria faberi); experiment: Test A1 postemergence, Foxtail, Giant; settings: for Plant response rating, Foxtail, Giant: Postemergence
From the text: as §1

[17] = tested on: Pigweed, Palmer (palmer amaranth, palmer pigweed, Amaranthus palmeri); experiment: Test A1 preemergence, Pigweed, Palmer
From the text: as §1

rice (Oryza sativa) = experiment: Test B1 flooded paddy test, rice; settings: 250 g ai/ha, Flood, applied to paddy water, 2-leaf stage, visually evaluated after 10 to 14 days
From the text: as §2

corn (Zea mays) [18] = experiment: Test A1 preemergence, corn
From the text: as §1

[19] = tested on: horseweed (Erigeron canadensis); experiment: Test A1 postemergence, horseweed; settings: for Plant response rating, Horseweed: Postemergence
From the text: as §1

[20] = tested on: Pigweed, Palmer (palmer amaranth, palmer pigweed, Amaranthus palmeri); experiment: Test A1 postemergence, Pigweed, Palmer; settings: for Plant response rating, Pigweed, Palmer: Postemergence
From the text: as §1

kochia (Bassia scoparia) [21] = experiment: Test A1 postemergence, kochia; settings: for Plant response rating, Kochia: Postemergence
From the text: as §1

[22] = tested on: goosegrass (Eleusine indica); experiment: Test A1 preemergence, goosegrass
From the text: as §1

soybean (Glycine max) [23] = experiment: Test A1 preemergence, soybean
From the text: as §1

[24] = tested on: blackgrass (Alopecurus myosuroides); experiment: Test A1 preemergence, blackgrass
From the text: as §1

[25] = tested on: ragweed (common ragweed, Ambrosia artemisiifolia); experiment: Test A1 preemergence, ragweed
From the text: as §1

[26] = tested on: blackgrass (Alopecurus myosuroides); experiment: Test A1 postemergence, blackgrass; settings: 0 to 100 scale (0 no effect, 100 complete control)
From the text: as §1

[27] = 31 g ai/ha, 0 to 100 scale (0 no effect, 100 complete control)
[28] = 125 g ai/ha, 0 to 100 scale, 0 no effect, 100 complete control
[29] = 31 g ai/ha, 0 to 100 scale (0 no effect, 100 complete control), 10 days
[30] = 31 g ai/ha, postemergence, 0 to 100 scale (0 no effect, 100 complete control)
[31] = 125 g ai/ha, 0 to 100 scale (0 no effect, 100 complete control), 10 days

With `Cc1cc(Br)c(NS(=O)(=O)C(F)(F)F)cc1C1=NOC2(CCCC2)C1` [Compound 309] the “Plant response rating, Foxtail, Giant” value [1, 27] was 60, the “Plant response rating, Foxtail, Giant” value [1, 28] was 90 and the “Plant response rating, Ducksalad (0 to 100 scale, 0 is no effect, 100 is complete control)” value [2] was 60. For the same compound, the “Plant response rating, Galium” value [3, 29] was 40, the “Plant response rating, Galium” value ([3]; 125 g ai/ha, 0 to 100 scale) was 80 and the “Plant response rating, Oat, Wild” value [4, 27] was 20. The “Plant response rating, Oat, Wild” value [4, 28] was 60, the “Plant response rating, Wheat” value [5, 27] was 0 and the “Plant response rating, Wheat” value [5, 28] was 60. The “Plant response rating, Kochia” value (kochia (Bassia scoparia) [6]; [27]) was 0, the “Plant response rating, Kochia” value (kochia (Bassia scoparia) [6]; [28]) was 50 and the “Plant response rating, Ragweed” value [7, 29] was 0. For the same compound, the “Plant response rating, Ragweed” value ([7]; 125 g ai/ha, 0 to 100 scale) was 50, the “Plant response rating, Goosegrass” value [8, 29] was 0 and the “Plant response rating, Goosegrass” value ([8]; 125 g ai/ha, 0 to 100 scale) was 30. The “Plant response rating, Oat, Wild” value [9, 29] was 0, the “Plant response rating, Oat, Wild” value ([9]; 125 g ai/ha, 0 to 100 scale) was 20 and the “Plant response rating, Corn” value (corn (Zea mays) [10]; [29]) was 0. For the same compound, the “Plant response rating, Corn” value (corn (Zea mays) [10]; 125 g ai/ha, 0 to 100 scale) was 30, the “Plant response rating, Barnyardgrass (0 to 100 scale, 0 is no effect, 100 is complete control)” value [11] was 0 and the “Plant response rating, Soybean” value (soybean (Glycine max) [12]; [29]) was 10. The “Plant response rating, Soybean” value (soybean (Glycine max) [12]; 125 g ai/ha, 0 to 100 scale) was 30, the “Plant response rating, Wheat” value [13, 29] was 0 and the “Plant response rating, Wheat” value ([13]; 125 g ai/ha, 0 to 100 scale) was 40. The “Plant response rating, Ryegrass, Italian” value [14, 27] was 60, the “Plant response rating, Ryegrass, Italian” value [14, 28] was 90 and the “Plant response rating, Ryegrass, Italian” value [15, 29] was 0. The “Plant response rating, Ryegrass, Italian” value ([15]; 125 g ai/ha, 0 to 100 scale) was 30, the “Plant response rating, Foxtail, Giant” value [16, 29] was 20 and the “Plant response rating, Foxtail, Giant” value ([16]; 125 g ai/ha, 0 to 100 scale) was 60. The “Plant response rating, Pigweed, Palmer” value [17, 27] was 40, the “Plant response rating, Pigweed, Palmer” value [17, 28] was 40 and the “Plant response rating, Rice (0 to 100 scale, 0 is no effect, 100 is complete control)” value (rice (Oryza sativa)) was 0. For the same compound, the “Plant response rating, Corn” value (corn (Zea mays) [18]; [27]) was 0, the “Plant response rating, Corn” value (corn (Zea mays) [18]; [28]) was 0 and the “Plant response rating, Horseweed” value [19, 29] was 10. The “Plant response rating, Horseweed” value ([19]; 125 g ai/ha, 0 to 100 scale) was 20, the “Plant response rating, Pigweed, Palmer” value [20, 29] was 0 and the “Plant response rating, Pigweed, Palmer” value ([20]; 125 g ai/ha, 0 to 100 scale) was 20. The “Plant response rating, Kochia” value (kochia (Bassia scoparia) [21]; [29]) was 0, the “Plant response rating, Kochia” value (kochia (Bassia scoparia) [21]; 125 g ai/ha, 0 to 100 scale) was 60 and the “Plant response rating, Goosegrass” value [22, 27] was 50. The “Plant response rating, Goosegrass” value [22, 28] was 100, the “Plant response rating, Soybean” value (soybean (Glycine max) [23]; [27]) was 0 and the “Plant response rating, Soybean” value (soybean (Glycine max) [23]; [28]) was 0. For the same compound, the “Plant response rating, Blackgrass” value [24, 27] was 30, the “Plant response rating, Blackgrass” value [24, 28] was 60 and the “Plant response rating, Ragweed” value [25, 27] was 0. For the same compound, the “Plant response rating, Ragweed” value [25, 28] was 20.

For `Cc1cc(C)c(N(COC(=O)C(C)(C)C)S(=O)(=O)C(F)(F)F)cc1C1=NOC(C(C)C)C1` (centres unmarked) [Compound 383], the “Plant response rating, Foxtail, Giant” value [1, 27] was 0, the “Plant response rating, Foxtail, Giant” value [1, 28] was 20 and the “Plant response rating, Ducksalad (0 to 100 scale, 0 is no effect, 100 is complete control)” value [2] was 25. The “Galium plant response rating” value [3, 30] was 0, the “Plant response rating, Galium” value [3, 31] was 60 and the “Plant response rating, Oat, Wild” value [4, 27] was 0. The “Plant response rating, Oat, Wild” value [4, 28] was 30, the “Plant response rating, Wheat” value [5, 27] was 20 and the “Plant response rating, Wheat” value [5, 28] was 20. For the same compound, the “Plant response rating, Kochia” value (kochia (Bassia scoparia) [6]; [27]) was 0, the “Plant response rating, Kochia” value (kochia (Bassia scoparia) [6]; [28]) was 0 and the “Ragweed plant response rating” value [7, 30] was 30. For the same compound, the “Plant response rating, Ragweed” value [7, 31] was 40, the “Goosegrass plant response rating” value [8, 30] was 0 and the “Plant response rating, Goosegrass” value [8, 31] was 20. The “Oat, Wild plant response rating” value [9, 30] was 0, the “Plant response rating, Oat, Wild” value [9, 31] was 10 and the “Corn plant response rating” value (corn (Zea mays) [10]; [30]) was 0. The “Plant response rating, Corn” value (corn (Zea mays) [10]; [31]) was 0, the “Plant response rating, Barnyardgrass (0 to 100 scale, 0 is no effect, 100 is complete control)” value [11] was 98 and the “Soybean plant response rating” value (soybean (Glycine max) [12]; [30]) was 30. For the same compound, the “Plant response rating, Soybean” value (soybean (Glycine max) [12]; [31]) was 50, the “Wheat plant response rating” value [13, 30] was 0 and the “Plant response rating, Wheat” value [13, 31] was 70. The “Plant response rating, Ryegrass, Italian” value [14, 27] was 0, the “Plant response rating, Ryegrass, Italian” value [14, 28] was 40 and the “Ryegrass, Italian plant response rating” value [15, 30] was 0. The “Plant response rating, Ryegrass, Italian” value [15, 31] was 0, the “Foxtail, Giant plant response rating” value [16, 30] was 0 and the “Plant response rating, Foxtail, Giant” value [16, 31] was 60. For the same compound, the “Plant response rating, Pigweed, Palmer” value [17, 27] was 0, the “Plant response rating, Pigweed, Palmer” value [17, 28] was 0 and the “Plant response rating, Rice (0 to 100 scale, 0 is no effect, 100 is complete control)” value (rice (Oryza sativa)) was 10. For the same compound, the “Plant response rating, Corn” value (corn (Zea mays) [18]; [27]) was 0, the “Plant response rating, Corn” value (corn (Zea mays) [18]; [28]) was 0 and the “Horseweed plant response rating” value [19, 30] was 0. The “Plant response rating, Horseweed” value [19, 31] was 30, the “Pigweed, Palmer plant response rating” value [20, 30] was 0 and the “Plant response rating, Pigweed, Palmer” value [20, 31] was 10. The “Blackgrass plant response rating” value ([26]; 31 g ai/ha, postemergence) was 0, the “Plant response rating, Blackgrass” value ([26]; Postemergence, 125 g ai/ha, 10 days) was 50 and the “Kochia plant response rating” value (kochia (Bassia scoparia) [21]; [30]) was 20. For the same compound, the “Plant response rating, Kochia” value (kochia (Bassia scoparia) [21]; [31]) was 20, the “Plant response rating, Goosegrass” value [22, 27] was 0 and the “Plant response rating, Goosegrass” value [22, 28] was 80. For the same compound, the “Plant response rating, Soybean” value (soybean (Glycine max) [23]; [27]) was 0, the “Plant response rating, Soybean” value (soybean (Glycine max) [23]; [28]) was 0 and the “Plant response rating, Ragweed” value [25, 27] was 0. The “Plant response rating, Ragweed” value [25, 28] was 0.
